Reference: patent US9663800B2, “Alkane exporter and its use” (Nanyang Technological University, priority 2012, dated 2017)

Key:
ABC2 mRNA = experiment: Quantitative RT-PCR of ABC2 transcripts after alkane treatment; format: cell-based; settings: Y. lipolytica CLIB122, 24 h alkane treated vs. untreated, normalized to actin, p<0.05
Description: (§1) FIG. 3. mRNA transcripts levels of ABC2 and ABC3 in Y. lipolytica. Quantitative RT-PCR analysis of ABC2 (A) and ABC3 (B) in Y. lipolytica cells corresponding to treatment with octane, nonane, decane, undecane and dodecane (C8-C12). Each value of qRT-PCR was normalized to β-actin expression levels and expressed as the fold change relative to the levels detected in control samples, which were cells without alkane treatment and set equal to 1. Error bars represent the SD of triplicate.
(§2) To assess whether ABC1, ABC2, ABC3 and ABC4 are involved in alkane transport in Y. lipolytica, we analysed the effects of alkanes with different chain length (C8-C12) on the transcription levels of these four ABC transporter genes using quantitative RT-PCR.
(§3) Total RNA samples from 24 h alkane treated and untreated Y. lipolytica CLIB122 cells were prepared using RNeasy Mini Kit (Qiagen), followed by cDNA synthesis using H minus Reverse transcriptase kit (Fermentas). Quantitative RT-PCR analysis was performed on a Bio-Rad iQ5 real-time PCR detection system using SsoFast EvaGreen Supermix kit (Bio-Rad). The actin gene (YALI0D08272g) was used as reference gene for Y. lipolytica. Relative mRNA levels were derived using comparative CT method.

ABC3 mRNA = experiment: Quantitative RT-PCR of ABC3 transcripts after alkane treatment; format: cell-based; settings: Y. lipolytica CLIB122, 24 h alkane treated vs. untreated, normalized to actin, p<0.05
Description: as §1, §2, §3

S. cerevisiae BY4741 = experiment: Alkane susceptibility test in liquid culture; format: cell-based, Saccharomyces cerevisiae; settings: control cells with empty plasmid, 48 hr, 28° C.
Experimental: FIG. 2. Alkane susceptibility test for S. cerevisiae. The alkane susceptibility was tested in cells expressing ABC2/3 or with empty plasmid. (A) Alkane susceptibility test on agar plate. Serial dilutions of cells expressing ABC2/3 were spotted on agar plates with alkanes (decane, undecane) as vapour phase. Plates were incubated at 28° C. for 2 days. (B) Alkane susceptibility test in liquid culture. Overnight cell culture was diluted into induction medium (final OD600=0.4) with different alkanes (decane & undecane) concentrations. The plates were incubated for 48 hr at 28° C. The OD600 value of each sample was determined and plotted against its corresponding alkane concentration. Symbols for strains are: control sample with empty plasmid (open circle), cells expressing ABC2 (filled circle), cell expressing ABC3 (filled triangle).
Overnight culture was diluted into 5 ml induction medium in 50 ml glass bottle (Sigma) at an initial OD600 of 0.4. Alkanes were added as different final concentration. Bottles were sealed tightly with butyl rubber stopper (Sigma) and silver aluminum seal (Sigma). Liquid culture was performed at 28° C. with shaking. Growth was monitored by measuring the OD600 at different time point. Cell culture used for time point OD checking was collected from the glass bottle using needle and syringe.
To further analyze the effect of ABC2 and ABC3 toward decane and undecane, alkane susceptibility tests in liquid culture were conducted. […] With the expression of ABC2, decane tolerance was boosted about 80-fold (20% vs. 0.25% decane) and cells can survive in 20% undecane. For ABC3, decane tolerance is increased slightly by about 3-fold (0.75% vs. 0.25% decane) and cells are resistant to 20% undecane. It is apparent that the expression of ABC2 and ABC3 transporters improved the tolerance toward C10 and C11 alkanes.

## CCCCCCCCC [nonane]
ABC2 mRNA
  mRNA levels of ABC2: significantly increased
ABC3 mRNA
  mRNA levels of ABC3: significantly increased

## CCCCCCCCCC [decane]
S. cerevisiae BY4741
  alkane concentration causing a significant decrease in viability of the control cells: 0.5%
ABC2 mRNA
  mRNA levels of ABC2: significantly increased
ABC3 mRNA
  mRNA levels of ABC3: significantly increased
